Assay results as given in paper PMC6010002, “Synthesis, pharmacology and molecular docking on multifunctional tacrine-ferulic acid hybrids as cholinesterase inhibitors against Alzheimer’s disease” (Journal of Enzyme Inhibition and Medicinal Chemistry, 2018).
Where two headings read alike, the source gives them in different places.

Key:
[1] = target: T1, AChE (EC 3.1.1.7) from electric eel (Electrophorus electricus, UniProt O42275); assay: biochemical; conditions: for SI (selectivity index, AChE IC50/BuChE IC50): eeAChE IC50 / eqBuChE IC50; for IC50: eeAChE, mean ± SEM of triplicate independent experiments
T1 construct: AChE (EC 3.1.1.7, Type VI-S, from electric eel, C3389); purchased Sigma-Aldrich C3389; host or cells: electric eel (natural source)
Procedure: (§1) AChE (EC 3.1.1.7, Type VI-S, from electric eel, C3389) and BuChE (EC 3.1.1.8, from equine serum, C0663), 5,5’-dithiobis (2-nitrobenzoic acid) (DTNB, D218200), acetylthiocholine iodide (ATC, A5751) and butyrylthiocholine iodide (BTC, B3253) used as substrates were obtained from Sigma-Aldrich (St. Louis, MO).
(§2) The inhibitory capacity of the synthesised compounds on AChE and BuChE biological activity in this paper were evaluated according to our previously reported method. Briefly, AChE/BuChE stock solution was diluted with 0.2 M phosphate buffer pH 8.0 to give 2.5 units/mL (for electrophorus electricus (eeAChE) and equine serum (eqBuChE)). ATC/BTC iodide solution (0.075 M) was dissolved in deionized water. […] The assay solution was prepared as follows: potassium dihydrogen phosphate (1.36 g, 10 mmol) was dissolved in 100 ml of water. The pH of the solution was then adjusted to 8.0 ± 0.1 with KOH. Stock solutions of the test samples were dissolved in ethanol to give a final concentration of 10 − 4^ M when diluted to the final volume of 3.32 ml. For each compound, a dilution series of five different concentrations 10 − 5–10 − 9^9 M were prepared.
(§3) For measurement, a cuvette containing 3 mL of phosphate buffer, 100 μL of eeAChE or eqBuChE, 100 μL of DTNB, and 100 μL of the test compound solution was added in sequence. The reaction was initiated by adding 20 μL of ATC or BTC and the solution was mixed immediately. […] For the reference value, 100 μL of water was replaced for the test compound solution. For the blank control, additional 100 μL of water was also replaced for the enzyme solution. The measurement of each concentration was assayed in triplicate. GraphPad Prism 5 (GraphPad Software, Inc., La Jolla, CA) was used for data processing. The inhibition curve was fitted by plotting percentage enzyme activity (100% for the reference) versus the logarithm of test compound concentration. The half maximal inhibitory concentration (IC50) values were calculated according to the curve and the data were shown in mean ± SEM.
(§4) Inhibitory activities were presented as IC50 (nM).

[2] = target: T2, BuChE (EC 3.1.1.8) from horse serum (Equus caballus, UniProt P81908); assay: biochemical; conditions: eqBuChE, mean ± SEM of triplicate independent experiments
T2 construct: BuChE (EC 3.1.1.8, from equine serum, C0663); purchased Sigma-Aldrich C0663; host or cells: equine serum (natural source)
Procedure: as §1, §2, §3, §4

Aβ1–42 = target: T3, Aβ1–42 (Homo sapiens, UniProt P05067); assay: Inhibition of self-induced Aβ1–42 aggregation (Thioflavin T assay); format: biochemical; conditions: ThT fluorescence, 24 h incubation, read-out: Inhibitory rate of compounds (25 μM) on self-induced Aβ1-42 aggregation
T3 construct: aliquots of 2 μL of Aβ1–42 (AS-64129–05 Anaspec Inc.); purchased Anaspec Inc. AS-64129–05
Procedure: Inhibitory effects of the compounds on self-induced Aβ1–42 aggregation were tested through a Thioflavin T (ThT)-(T3516, Sigma-Aldrich) binding assay.
The calculation of the inhibitory rate of Aβ1–42 self-induced aggregation was performed as the following equation: (1 − IFi/IFc) × 100%. IFi and IFc were the fluorescence intensities measured in the presence and absence of inhibitors, respectively, after subtracting the background fluorescence of the 5 mM ThT solution. Each compound was measured in triplicate.
A thioflavin T-based fluorometric assay was performed.

adult male ICR mice = format: in vivo; conditions: mouse, in vivo
Procedure: . Heparinised serum was obtained from the retrobulbar plexus 8, 22, and 36 h after the administration and were subjected to hepatotoxicity evaluation. The activity of aspartate aminotransferase (AST) and alanine aminotransferase (ALT), two indicators of liver damage, was determined by a commercial assay kit (EF551 and EF550 for ALT, EH027 and EF548 for AST, Wako, Japan). The data were analysed by Biochemical Analyzer (HITACHI 7020, Japan).
Mice were sacrificed 1 h after the collection of retrobulbar blood and livers were removed for morphological studies by using the immunohistochemical method. Two 3 mm sections of each liver extending from the hilus to the margin of the left lateral lobe were isolated using ultra-thin semiautomatic microtome (Leica RM2245, Germany) and placed in 10% buffered formaldehyde immediately, fixed for two days, and embedded together in one paraffin block by using paraffin embedding station (Leica EG1150H, Germany). Subsequently, 5 μm sections were prepared from these paraffin blocks. They were deparaffinated and stained with hematoxylin and eosin (H&E) for histopathological examinations.

HepG2 cells = conditions: for Cell viability (% of vehicle): 24 h, MTT, mean ± SEM n = 3; for Antiproliferative activity on HepG2 cells (in words): MTT assay
Procedure: To determine the possible drug-induced hepatotoxicity, 10d and 10g were selected for preliminary hepatotoxicity evaluation. Heparinised serum was obtained after the treatment of the compounds at 8, 22, and 36 h, respectively. […] Additionally, immunohistochemical staining was performed on the liver tissues for the histopathological study.
Methods for Cell Viability Assay. The human hepatocellular HepG2 cells were […]
Cells were seeded into 96-well plates at a density of 3
37 °C for the following experiments. For cytotoxicity test, cells were treated with 0.05- […]
Cell viability was measured by 3-(4,5- dimethylthiazol-2-yl)-2,5-diphenyltetrazolium bromide (MTT) analysis. In brief, 15 µL of MTT was added into each well and incubated at 37 °C for 4 h. The […]
viability was calculated and presented by the percentage of vehicle-treated group.

[3] = system: scopolamine-induced cognition-impaired adult ICR mice; assay: Morris water maze in scopolamine-induced cognition-impaired mice; format: in vivo; conditions: 30 mg/kg oral, scopolamine 1 mg/kg i.p., mean ± SEM n = 6; for Latency to target: probe trial
Procedure: Behavioral studies were performed using the Morris water maze[25] according to our method reported previously. Adult male imprinting control region (ICR) mice (8–10 weeks old, weight 20–25 g) were obtained from the Yangzhou University Medical Center (Yangzhou, China). All animal handling and experimental protocols were approved by the Institutional Animal Care and Use Committee of the China Pharmaceutical University. Scopolamine hydrobromide was purchased from Aladdin Reagents (S107418, Shanghai, China).
A circular pool (120 cm in diameter, 60 cm height) which was fixed with an escape platform (10 cm diameter) and filled to a depth of 40 cm fresh water (kept at 25 °C) composed the water maze and this water maze placed in a lit room was used to evaluate the cognition function and memory capacity of mice according to our previously described method[24] . After five days of learning and memory training, a probe trial was performed on day 6. For the evaluation of cognitive function, each mouse was individually trained on a visible-platform (labeled by a small flag, 5 cm tall) for two days and was followed by a hidden-platform version (placed 1 cm below the surface of the water) of the water maze from day 3 to day 5. All mice were subjected to two training trials daily, each of which lasted for 90 s. The time for each mouse to find the platform (a successful escape) was recorded. […] On the last day (day 6), a probe trial was given to the mice in which the platform was removed from the pool and each mouse was allowed 90 s to search for the platform. The time the animals spent to reach the missing platform location and the number of times they crossed that location were recorded.
Data for the time of escape latency, the swimming trajectory, and the number of visual platform crossings were recorded by Panlab SMART 3.0 (Panlab, S.L.U, Spain) and GraphPad Prism 5 was used to evaluate the level of memory retention.

T1 sequence (O42275 24-633): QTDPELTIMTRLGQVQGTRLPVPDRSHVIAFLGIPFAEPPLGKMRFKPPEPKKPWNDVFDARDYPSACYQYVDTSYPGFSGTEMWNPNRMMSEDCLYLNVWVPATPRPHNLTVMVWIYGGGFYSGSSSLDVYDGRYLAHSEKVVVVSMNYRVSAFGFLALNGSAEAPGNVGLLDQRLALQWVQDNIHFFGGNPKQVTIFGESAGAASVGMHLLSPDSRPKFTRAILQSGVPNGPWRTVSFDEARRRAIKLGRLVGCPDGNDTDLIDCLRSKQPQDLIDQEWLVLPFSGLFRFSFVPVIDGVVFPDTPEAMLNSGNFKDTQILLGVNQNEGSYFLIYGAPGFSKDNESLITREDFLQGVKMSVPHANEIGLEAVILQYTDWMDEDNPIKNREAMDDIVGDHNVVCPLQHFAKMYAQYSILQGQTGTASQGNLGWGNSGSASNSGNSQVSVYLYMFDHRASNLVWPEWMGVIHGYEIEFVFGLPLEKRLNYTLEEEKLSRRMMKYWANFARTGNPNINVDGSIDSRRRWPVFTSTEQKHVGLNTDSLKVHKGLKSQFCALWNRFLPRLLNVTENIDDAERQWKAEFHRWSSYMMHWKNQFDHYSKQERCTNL
T3 sequence (P05067 672-713): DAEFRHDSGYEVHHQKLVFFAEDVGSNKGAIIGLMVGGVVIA
T2 sequence (P81908 whole entry): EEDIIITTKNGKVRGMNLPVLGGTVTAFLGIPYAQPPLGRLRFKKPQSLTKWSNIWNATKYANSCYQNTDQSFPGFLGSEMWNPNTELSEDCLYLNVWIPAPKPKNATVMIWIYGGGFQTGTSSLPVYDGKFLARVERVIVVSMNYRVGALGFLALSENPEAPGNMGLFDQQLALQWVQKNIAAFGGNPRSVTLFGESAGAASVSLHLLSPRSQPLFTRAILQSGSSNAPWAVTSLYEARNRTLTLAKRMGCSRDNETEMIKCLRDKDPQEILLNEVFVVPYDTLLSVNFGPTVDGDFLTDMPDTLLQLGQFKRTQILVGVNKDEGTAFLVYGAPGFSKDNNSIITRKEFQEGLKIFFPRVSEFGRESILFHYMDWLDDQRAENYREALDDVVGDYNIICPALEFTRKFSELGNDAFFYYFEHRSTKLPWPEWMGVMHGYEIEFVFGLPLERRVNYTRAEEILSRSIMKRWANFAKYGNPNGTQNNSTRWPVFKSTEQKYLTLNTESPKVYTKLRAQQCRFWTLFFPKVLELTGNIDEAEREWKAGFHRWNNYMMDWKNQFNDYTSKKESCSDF

Row | Compound | SI (selectivity index, AChE IC50/BuChE IC50) [1] | IC50 [1] | IC50 [2] | inhibition at 25 µM (Aβ1–42) | Morphologic changes in liver (histopathology, HE staining) (adult male ICR mice) | Cell viability (% of vehicle) (HepG2 cells; HepG2, 0.05 µM) | Cell viability (% of vehicle) (HepG2 cells; HepG2, 0.1 µM) | Cell viability (% of vehicle) (HepG2 cells; HepG2, 0.5 µM) | Cell viability (% of vehicle) (HepG2 cells; HepG2, 2.5 µM) | Cell viability (% of vehicle) (HepG2 cells; HepG2, 5 µM) | Cell viability (% of vehicle) (HepG2 cells; HepG2, 50 µM) | Antiproliferative activity on HepG2 cells (in words) (HepG2 cells) | Distance to target [3] | Speed in virtual platform [3] | Latency to target [3]
1 | COc1cc(/C=C/C(=O)NCCNc2c3c(nc4ccccc24)CCCC3)ccc1OCc1ccc(C#N)cc1 [Compound 10j, (E)-3–(4-((4-cyanobenzyl)oxy)-3-methoxyphenyl)-N-(2-((1,2,3,4-tetrahydroacridin-9-yl)amino)ethyl)acrylamide] | 1.3 | 107 ± 29.9 nM | 79.8 ± 8.9 nM | 49.5% | – | – | – | – | – | – | – | – | – | – | –
2 | COc1cc(/C=C/C(=O)NCCNc2c3c(nc4ccccc24)CCCC3)ccc1OCc1ccc(Br)cc1 [Compound 10d, (E)-3–(4-((4-bromobenzyl)oxy)-3-methoxyphenyl)-N-(2-((1,2,3,4-tetrahydroacridin-9-yl)amino)ethyl)acrylamide] | 0.7 | 49.5 ± 3.8 nM | 69.4 ± 13.4 nM | 66.8% | did not cause adverse morphologic changes in liver | 129.7 ± 7.5 % of vehicle | 125.0 ± 2.3 % of vehicle | 125.6 ± 2.1 % of vehicle | 130.6 ± 2.2 % of vehicle | 13.2 ± 2.3 % of vehicle | 2.5 ± 0.3 % of vehicle | relatively strong toxic effects | 628.95 ± 87.55 cm | 18.82 ± 5.36 cm/s | 19.08 ± 2.56 s
3 | COc1cc(/C=C/C(=O)NCCNc2c3c(nc4ccccc24)CCCC3)ccc1OCc1ccc(C)c(C)c1 [Compound 10g, (E)-3–(4-((3,4-dimethylbenzyl)oxy)-3-methoxyphenyl)-N-(2-((1,2,3,4-tetrahydroacridin-9-yl)amino)ethyl)acrylamide] | 0.4 | 37 nM | 101 ± 15.5 nM | 65.5% | did not cause adverse morphologic changes in liver | 128.4 ± 5.6 % of vehicle | 124.6 ± 1.7 % of vehicle | 121.7 ± 3.5 % of vehicle | 128.9 ± 4.1 % of vehicle | 1.5 ± 0.1 % of vehicle | 1.9 ± 0.3 % of vehicle | relatively strong toxic effects | 612.85 ± 81.54 cm | 17.27 ± 3.39 cm/s | 24.73 ± 3.54 s
4 | Oc1ccc(/C=C/c2cc(O)cc(O)c2)cc1 [Resveratrol, reference compound] | – | – | – | 45.7% | – | – | – | – | – | – | – | – | – | – | –
